# Measured values published in patent publication US20250296938A1, “Compounds that Interact with the Ras Superfamily for the Treatment of Cancers, Inflammatory Diseases, Rasopathies, and Fibrotic Disease” (SHY Therapeutics, LLC, priority 2018, published 2025).
# Where two headings read alike, the source gives them in different places.
# Columns and labels:
# Assay in all cases: Ras GTP binding domain inhibition assay (Cy3-GTP/Cy5-GTP competition)
# KRas G12D mutant = biological target: T1, KRas G12D mutant (Homo sapiens, UniProt P01116, G12D); conditions: 20 μM
# T1 construct: fused on or other part: His tag, used for capture on nickel-coated plates
# Description: (§1) The following method was developed as specific assay for the following proteins: KRas wild type, KRas Q61H mutant, KRas G12C mutant, KRas G12D mutant, HRas wild type, Rac-1, and Rho-A.
# (§2) • 25 mM Tris-HCl, pH 7.4 • 27 mM KCl • 137 mM NaCl • 1 mM MgCl2 • 1 mM DTT
# (§3) • 50 mM Tris-HCl, pH 7.0 • 1 mM MgCl2 • 1 mM DTT
# (§4) The small GTPases proteins: KRas wild type. KRas Q61H mutant, KRas G12C mutant, KRas G12D mutants, HRas wild type, Rac-1, and Rho-A were expressed as His-tagged proteins. In addition, the Guanosine nucleotide Exchange Factor (GEF) Sos protein (residues 556-1049) was expressed as a His-tagged protein. In cells, the guanine nucleotide exchange factor Sos protein promotes activation of Ras proteins by stimulating an exchange of GDP for GTP. The inclusion of Sos to the Ras GTP binding domain inhibition assay may be considered as an alternative representation of physiological cellular conditions for evaluating the inhibitory activity of some of the tested small molecules.
# (§5) For the assay, all purified small GTPases proteins were diluted in Buffer-I or Buffer-II to a final concentration of 10-30 μg/mL. 200 μL of each diluted protein was added to a nickel-coated 96-well plate and incubated overnight at 4° C. Then the protein solution was discarded and 200 μL of Buffer-I or Buffer-II was added to each well in the presence of 1% DMSO. Compounds to be tested were added to the protein-coated wells at final concentration of 20 μM, and incubated for 3 hours at room temperature with and without […] of Sos added to the final hour of the incubation. When performing IC50 measurements a serial dilution of all tested concentrations was added. Then Cy3-GTP or Cy5-GTP was added to each well to a final concentration of 100 nM. The labeled GTP was incubated for 45 minutes at room temperature. Following GTP incubation, wells were washed 3× in Buffer-I or Buffer-II and 200 μL of Buffer-I or Buffer-II was added to each well. Following washes, the amount of bound labeled-GTP was measured using a SpectraMax M3 (Molecular Devices).
# KRas G12C mutant = tested on: KRas G12C mutant; parameters: species or system human; conditions: 20 μM; for KRas G12C mutant + SOS: % inh.: with SOS; for KRas G12C mutant: % inh.: without SOS
# Description: as §1, §2, §3, §4, §5
# KRas wild type = tested on: KRas wild type; parameters: species or system human; conditions: 20 μM; for KRas wild type + SOS: % inh.: with SOS; for KRas wild type: % inh.: without SOS
# Description: as §1, §2, §3, §4, §5
# KRas Q61H mutant = tested on: KRas Q61H mutant; parameters: species or system human; conditions: 20 μM; for KRas Q61H mutant + SOS: % inh.: with SOS; for KRas Q61H mutant: % inh.: without SOS
# Description: as §1, §2, §3, §4, §5
# [1] = with SOS, read-out: KRas G-12D mutant + SOS: % inh.
# [2] = without SOS, read-out: KRas G12D mutant: % inh.
inhibition at 20 µM (KRas G12D mutant; [1]) [%],inhibition at 20 µM (KRas G12D mutant; [2]) [%],KRas G12C mutant + SOS: % inh. (KRas G12C mutant),KRas G12C mutant: % inh. (KRas G12C mutant),KRas wild type + SOS: % inh. (KRas wild type),KRas wild type: % inh. (KRas wild type),KRas Q61H mutant + SOS: % inh. (KRas Q61H mutant),KRas Q61H mutant: % inh. (KRas Q61H mutant),SMILES
51 to 75,51 to 75,D (76-100% inhibition),A (1-25% inhibition),D (76-100% inhibition),B (26-50% inhibition),D (76-100% inhibition),B (26-50% inhibition),COC1CCN(c2nc(-c3nccn3C)nc3sc(-c4ccccc4CO)c(-c4ccccc4)c23)C1.Cl (stereo not shown)
1 to 25,1 to 25,A (1-25% inhibition),A (1-25% inhibition),A (1-25% inhibition),A (1-25% inhibition),A (1-25% inhibition),A (1-25% inhibition),COC1CCN(c2nc(-c3nccn3C)nc3sc(-c4ccc(N)nc4C)c(-c4ccccc4)c23)C1.Cl (stereo not shown)
51 to 75,1 to 25,D (76-100% inhibition),0 (0% inhibition),D (76-100% inhibition),0 (0% inhibition),D (76-100% inhibition),0 (0% inhibition),COC1CCN(c2nc(-c3nccn3C)nc3sc(-c4ccc(CO)cc4)c(-c4ccccc4)c23)C1.Cl (stereo not shown)
26 to 50,26 to 50,B (26-50% inhibition),B (26-50% inhibition),A (1-25% inhibition),B (26-50% inhibition),B (26-50% inhibition),A (1-25% inhibition),COC1CCN(c2nc(-c3nccn3C)nc3sc(-c4ccncc4C)c(-c4ccccc4)c23)C1.Cl (stereo not shown)
51 to 75,51 to 75,D (76-100% inhibition),A (1-25% inhibition),D (76-100% inhibition),C (51-75% inhibition),D (76-100% inhibition),D (76-100% inhibition),COC1CCN(c2nc(-c3nccn3C)nc3sc(-c4ccnc(N(C)C)c4)c(-c4ccccc4)c23)C1.Cl (stereo not shown)
26 to 50,51 to 75,C (51-75% inhibition),D (76-100% inhibition),B (26-50% inhibition),C (51-75% inhibition),C (51-75% inhibition),C (51-75% inhibition),COC(=O)c1nc(C2NCCN2C)nc(O)c1O (stereo not shown)
76 to 100,26 to 50,D (76-100% inhibition),C (51-75% inhibition),D (76-100% inhibition),B (26-50% inhibition),D (76-100% inhibition),B (26-50% inhibition),COC1CCN(c2nc(-c3nccn3C)nc3sc(-c4cnn(C)c4)c(-c4ccccc4)c23)C1.Cl (stereo not shown)
51 to 75,26 to 50,D (76-100% inhibition),0 (0% inhibition),D (76-100% inhibition),A (1-25% inhibition),D (76-100% inhibition),B (26-50% inhibition),COc1ccc(-c2sc3nc(-c4nccn4C)nc(N4CCC(OC)C4)c3c2-c2ccccc2)cn1.Cl (stereo not shown)
